We go through one compound from US9089486B2, “Process for the preparation of a pharmaceutical composition comprising ezetimibe” (LEK PHARMACEUTICALS D.D., priority 2009, dated 2015).

The conditions of data set [1]: ambient temperature; cited from earlier work.
For data set [2] the following is noted: cited from earlier work; for solubility in ethanol, methanol, and acetone: organic solvents.
A short description of data set [3]: Particle size of ezetimibe by Malvern Mastersizer. The class given is physicochemical. The conditions noted are these: ezetimibe particles, lactose in the blend dissolved. From the text: After mixing of blend 2 in a high shear mixer, a good particle distribution could be reached. The size of the ezetimibe particles was not essentially changed.

Read-outs that look alike come from different tables or passages of the source.

As for `O=C1[C@H](CC[C@H](O)c2ccc(F)cc2)[C@@H](c2ccc(O)cc2)N1c1ccc(F)cc1` [Ezetimibe, ezetimibe], the stability entry in data set [1] was “stable”. Also, in data set [2], the “solubility in ethanol, methanol, and acetone” value is “freely to very soluble”; the solubility in water entry was “practically insoluble”. Moreover, in data set [2] (listed as ezetimibe), the “solubility in ethanol, methanol, and acetone” value is “soluble”; the solubility in water entry is “poorly soluble”. Besides, in data set [3], the “Particle size d(0.1)” value is reported as 0.43 μm, the “Particle size d(0.5)” value is reported as 7.54 μm and the “Particle size d(0.9)” value was determined as 16.87 μm.
